# US20060153958A1, “Relating to flavour compositions” (priority 2003, published 2006)
# What was measured:
# Streptococcus mutans R9 [1] = assay: Synergy of flavour material with fluoride in reducing acid production (bottle pH test); format: cell-based; settings: flavour material at 250 ppm plus fluoride (NaF); 2% glucose; anaerobic incubation 18-24 hours; pH difference between broths
# Experimental: (§1) 250 ml of PM broth (of formulation as described in Example 1(a) above) was charged to a Duran bottle bunged with a breathable stopper and inoculated with a loopful of Streptococcus mutans R9 (as above). The bacterial culture was then incubated anaerobically for 2-3 days at 37° C., followed by centrifugation at 3600 rpm for 10 minutes. The supernatant was decanted to waste. The pellets remaining were resuspended in 12 ml of 0.1% peptone and the optical density at 540 nm (OD540) measured and adjusted (if required) by diluting with fresh PM broth to between 0.2 and 0.3 to give a stock inoculum culture.
# (§2) Broth was prepared by adding 4% (w/v) glucose to 0.3% (w/v) TSB broth (GTSB). The broth was sterilised by aseptically passing the solution through a 0.22 μm filter into a sterile bottle.
# Control incubations were prepared by adding 2.5 ml of the stock inoculum culture (adjusted to an OD540 of 0.2-0.3) to 2.5 ml of GTSB containing 4% (w/v) glucose in 0.3% (w/v) TSB.
# A test flavour material/flavour was diluted in the GTSB to give a stock solution of flavour material/flavour with a final concentration of 25,000 ppm (250 mg flavour material/flavour in 10 ml of GTSB).
# Flavour material/flavour incubations were prepared by adding 2.5 ml of the stock inoculum culture to 2.45 ml of GTSB, and 50 μl of flavour material/flavour stock solution. Thus, flavour materials/flavours were tested at a final concentration of 250 ppm, for their efficacy in inhibiting acid production from 2% glucose.
# The mixtures were then incubated anaerobically.
# (§3) After anaerobic incubation of the resulting mixtures for 18-24 hours, the pH of the suspensions was measured using a 476530M combination pH electrode (Mettler Toledo, 64 Boston Road, Beaumont Leys, Leicester, LE4 1AW), calibrated using pH 4 and pH 7 buffers. Results were recorded as the difference in pH change between broths containing flavour material/flavour and an untreated control.
# Flavour materials useful in a flavour composition of the invention were tested at 250 ppm for their potential synergy with fluoride as described below.
# Control and flavour material incubations were prepared as described in Example 1(b) above.
# A fluoride stock solution (2,500 ppm F^−) was prepared by dissolving […] NaF in 10 ml of GTSB. For fluoride controls, 2.5 ml of stock inoculum culture was added to 2.48 ml of GTSB, and 20 μl of fluoride stock solution.
# For flavour material and fluoride incubations, 2.5 ml of stock inoculum culture was added to 2.43 ml of GTSB, 50 μl of flavour material stock solution and 20 μl of fluoride stock solution.
# The mixtures were incubated anaerobically.
# as §3, with “broths.” for “broths containing flavour material/flavour and an untreated control.”
# (§4) If the pH of the incubated broth containing flavour material and fluoride was higher than that measured for incubated broths containing either flavour material or fluoride, then this was considered to indicate that there had been a synergistic effect between the flavour material and fluoride in reducing the acid production of Streptococcus mutans.
# Streptococcus mutans R9 [2] = assay: Synergy of flavour material with xylitol in reducing acid production (glucose/xylitol broth pH test); format: cell-based; settings: anaerobic incubation 18-24 hours, pH difference between broths
# Experimental: Xylitol is a sugar substitute that has been used in many products as a non-cariogenic sweetener. The potential synergy between xylitol and a flavour material useful in the composition of the invention was investigated using a glucose/xylitol broth by the following method. Flavour materials were tested at 250 ppm unless otherwise stated.
# as §1, §2
# Control and flavour material incubations were prepared as described in Example 1(b) above. Xylitol synergy was investigated by adding 2.5 ml of stock inoculum culture to 2.5 ml of GTSB supplemented with 4% (w/v) xylitol. […]
# as §3, with “broths.” for “broths containing flavour material/flavour and an untreated control.”
# as §4, with “xylitol” for “fluoride”, “recorded” for “measured”, “xylitol,” for “fluoride,”, “was” for “had been”, “synergy” for “synergistic effect”, “mutans. […]” for “mutans.”
Compound,Synergy with Fluoride (Streptococcus mutans R9 [1]),other results
"O=C/C=C/c1ccccc1 [Cinnamic Aldehyde Extra, cinnamic aldehyde]",++ (Inhibition of acid production by an additional 0.25-0.49 pH units),
"CC=Cc1ccc(OC)cc1 [Anethole Synthetic, anethole]",++++ (Inhibition of acid production by an additional 0.75 pH units or more (i.e. >0.75 pH units in addition to the effect of fluoride or flavour material alone)),
"CCCCCCCCCO [Alcohol C9, nonanol]",,Synergy with Xylitol (Streptococcus mutans R9 [2]; flavour material at 62.5 ppm): +++ (Inhibition of acid production by an additional 0.50-0.74 pH units)
"CC(C)=CCCC(C)=CC=O [Citral Natural, citral]",+ (Inhibition of acid production by an additional 0.01-0.24 pH units),
"CCCCCCCCCCO [Alcohol C10 (Decanol), decanol]",++++ (Inhibition of acid production by an additional 0.75 pH units or more (i.e. >0.75 pH units in addition to the effect of fluoride or flavour material alone)),
"Cc1ccc(C(C)C)c(O)c1 [Thymol, thymol]",+ (Inhibition of acid production by an additional 0.01-0.24 pH units),
"CCCCCCCCCC=O [Aldehyde C10 (Decanal), decanal]",++ (Inhibition of acid production by an additional 0.25-0.49 pH units),
"CC(=O)/C=C/C1C(C)=CCCC1(C)C (stereo not drawn) [Ionone Alpha, ionone alpha]",,Synergy with Xylitol (Streptococcus mutans R9 [2]; flavour material at 125 ppm): ++++ (Inhibition of acid production by an additional 0.75 pH units or more (i.e. >0.75 pH units in addition to the effect of fluoride or flavour material alone))
Damascone,,Synergy with Xylitol (Streptococcus mutans R9 [2]; flavour material at 250 ppm): ++ (Inhibition of acid production by an additional 0.25-0.49 pH units)
